Results reported in patent publication US20250381324A1, “CD31 MIMETIC COATING FOR ENDOVASCULAR STENT” (INSERM (Institut National de la Santé et de la Recherche …, priority 2021, published 2025).
Square brackets hold non-standard residues; d marks the D form. Primed or numbered codes have the meaning given here. Ends that are not written are not given here. Lys(N3) = [N-]=[N+]=NCCCC[C@H](N)C(=O)O; PEG4′ = not defined here

Tests used:
[1] = test system: aneurysm-carrying artery and abdominal aorta; experiment: Flow-diverter stents (CFD) implanted in rabbit aneurysm-carrying artery and abdominal aorta; SEM and histopathology (Example 3); type: in vivo, New Zealand White rabbits
Method: Flow-diverter stents (CFD) are braided meshes made of nitinol, from Sinomed. They are coated by one of the following coatings: • 1. SP1072 peptide according to the invention, or • 2. Hydrophilic polymer eG NTMA (obtained from the electrografting of N-[Tris (hydroxymethyl) Methyl]Acrylamide).
• 1) Transfer each stent in a 5 mL polypropylene round bottom tube (Bd Falcon Ref 352063). Insure the stent drops at the bottom of the tube. • 2) Add 4.5 mL of a 2 mg/mL PDA solution per tube. Homogenize each tube on a rotary wheel (approx. 20 rpm) overnight (18+/−2 h) at room temperature and protect from light. […] The stent color should change from silver to brown/black. After the incubation period the solution will become black with small PDA aggregates • 3) Transfer each stent in a new tube and rinse 3-times with demineralized water. homogenize on the rotary wheel 5 min at each rinse. • 4) Leave the last rinse and sonicate the tube for at least 30 s to discard any remaining PDA chunk. • 5) Transfer each stent in a 2 mL—Eppendorf tube containing 1.8 mL of DBCO (300 μM) per tube. Homogenize each tube on a rotary wheel (approx. 20 rpm) overnight at room temperature and protect from light. • 6) Transfer each stent in a new tube and rinse 3-times with demineralized water. Homogenize on the rotary well 5 min at each rinse. • 7) Transfer each stent in a 2 mL—Eppendorf tube containing 1.8 mL of CD31 peptide (50 μg/mL) per tube. Homogenize each tube on a rotary wheel (approx. 20 rpm) for 2 hours at room temperature and protect from light. • 8) Transfer each stent in a new tube and rinse 3-times with demineralized water. Homogenize on the rotary well 5 min at each rinse. • 9) Soak each stent in absolute Ethanol for 5 seconds before letting them dry.
Comparative hydrophilic polymer eG NTMA-coated flow diverter stents were obtained via the following protocol: • (1) Cleaning pretreatment: The stent frames were sonicated in acetone, ethanol, and water for injection for 10 min, respectively. • (2) Electro-grafting solution preparation: N-[tris(hydroxymethyl)methyl]acrylamide, concentration 0.30 M; NaNO3, concentration 0.05 M; 4-nitrophenyl tetrafluoroborate diazonium salt, 0.005 M; the remaining amount is DMSO solvent. • (3) Electro-grafting process: the pretreated stents were used as the working electrode, and a platinum foil was used as the counter electrode, which was submerged in the electro-grafting solution, and a linear sweep voltage between −0.1 and −3.0 V and back was applied between the two electrodes with a voltage scan rate of 0.05 V/s for 10 cycles. • (4) Coating smoothing and drying: the electrografted scaffold was smoothed in acetone (2 L) with nitrogen bubbling (rate 0.5-10 L/min) for 10 min and placed in a vacuum drying oven at 40° C. for 2 h.
A total of 8 healthy New Zealand White rabbits (including 2 spare animals), male and female, weighing about 3 kg, were included in this study. A total of 3 observation time points of 7 days, 30 days and 60 days postoperatively were set. The experiment was divided into two steps: 1) aneurysm animal modeling; 2) implantation of a dense mesh stent in the aneurysm-carrying artery and abdominal aorta for each animal. The stent implantation in the aneurysm-carrying artery was to be used to examine the safety and effectiveness of the stent in treating aneurysms, and the stent implantation in the abdominal aorta, covering a pair of lumbar arteries, was to be used to examine the safety of the tested stent.
Step 1) (aneurysm animal modeling) was performed as follows: • (a) The rabbit is placed supine on the operating table and the neck is shaved. […] Every 20 minutes, saline drips were injected into the rabbit's cervical vessels and vagus nerve to keep them moistened. […] Continue to use antibiotics for 3-5 days after surgery. […]

[2] = test system: aneurysm-carrying artery and abdominal aorta; experiment: Flow-diverter stents (CFD) in rabbits without aspirin or clopidogrel after implantation (Example 4); type: in vivo, New Zealand White rabbits; details: day 7, n=3, no aspirin nor clopidogrel after implantation; preliminary
Description: The same materials and protocol as in Example 3 were used, except that: • Only 3 animals were used for each condition, and • No aspirin nor clopidogrel was given to animals after the implantation.

[3] = test system: Primary Human Aortic Endothelial Cells (HAEC); experiment: Human aortic endothelial cells grown 48 h on bare or peptide-coated nitinol disks; F-actin / CD31 staining and image analysis; type: cell-based
Method: Nitinol disks are left untouched (bare metal) or coated with a domain 1, domain 2 or domain 1 and 2 CD31 analog peptide. The tested peptide is grafted to the nitinol disk following a polydopamine, DBCO-PEG4-amine and azide CD31 derivative peptide using a sequential dip-coating layering procedure. After this step, all the disks are incubated with Human aortic endothelial cells for 48 h. Disks are then rinsed and the cells are fixed in a formalin solution before staining. The staining is fulfilled using phalloidin coupled to AlexaFluor®488 dye (green fluorescence for Actin), DAPI is used for DNA staining and a domain 1 CD31 antibody coupled to APC is used for external Domain 1 staining. The cell adhesion and Actin/CD31 expression was evaluated by image analysis of the surface after staining.
In particular, as per FIG. 2 the bare or coated nitinol disks were placed at the bottom of culture wells. Primary Human Aortic Endothelial Cells (HAEC) were allowed to grow on the disks for a period of 48 h. The disks were thereafter rinsed with phosphate buffered saline, fixed in formalin, and processed for fluorescence microscopy. Disk-adherent cells were immersed in a solution comprising Hoechst 33342 (1 μg/ml, to stain the nuclei), phalloidin coupled to AlexaFluor®488 dye (0.5 μM, to stain F-actin fibers) and a monoclonal antibody directed against CD31 domain 1, coupled to allophycocyanin (to detect the presence and localization of intact CD31 at the cell surface) for 1 hour at 37° C., washed and mounted face down on glass bottom imaging chambers for imaging with an inverted fluorescence microscope.
Surface type is indicated on the Y axis, data are expressed as average±SD (N=6/surface type). Each dot corresponds to a specific surface modification. The F-actin expression relates the cellular stress of the cell in presence of the exogenous material.
In FIG. 4 the surface type is indicated on the Y axis. Each dot corresponds to a specific surface modification. Data are expressed as “Integrated Density” average±SD (N=6/surface type). CD31 expression relates the capacity of endothelial cells to adopt a physiologic phenotype while growing on a given substrate. An important variability is observed in terms of CD31 expression by HAEC according to the surface modification of the nitinol disks.
The “mirror” bars of FIG. 5 report the average Integrated Density of F-actin (left) and of CD31 (right) staining for each of the indicated (Y axis) type of peptide coated onto the disk surface and bare disks. Data are sorted (from the top to the bottom) according to the increase in the cellular stress (actin expression) of each coating. As shown on the figure, the degree of cellular stress (as detected by a high actin expression) and impaired endothelial phenotype (documented by a low CD31 expression) is evident on HAEC grown onto bare metal disks.
The data shown in FIG. 6 are expressed as the ratio between CD31 and F-actin expression.
The effect of different peptides, belonging to the different groups, were tested in batches following the same protocol as in FIG. 6. Different peptides from each group were tested in batches and the effect of individual peptides was repeatedly assessed in separate experiments. Data from all experiments were obtained by computer-assisted analysis of images of the disk side covered with endothelial cells, captured in the blue, green and red channel of an inverted fluorescence microscope. The functional score of the peptides belonging to the different groups was calculated by multiplying the number of cells (as detected by the number of blue, Dapi+ nuclei) for the integrated density of CD31 expression (red signal provided by the binding of a mouse anti-human CD31 monoclonal antibody, clone 9G11, conjugated allophycocyanin) and their product being divided for the integrated density of the F-actin polymerization (Phalloidin coupled to a green fluorochrome). […]

[4] = day 7, aneurysm-carrying artery
[5] = day 60, aneurysm-carrying artery

“YKSTVIVNNKEKTTAE-PEG4-K(N3)-CONH2 (YKSTVIVNNKEKTTAE[PEG4′][Lys(N3)]-NH2) [SP1072]” was tested, and the “endothelialization of inner surface of flow-diverter stents (conclusion)” value ([1]; Example 3 overall) was “promotes early endothelialization on the inner surface of the flow-diverter stents”, the “endothelialization of the device at sites other than the aneurysm entry (conclusion)” value ([1]; Example 3 overall) was “endothelialization of the device is fast and complete without apparent inflammation nor neointima” and the “neo arterial wall at the entry of the aneurysm sac (conclusion)” value ([1]; Example 3 overall) was “promotes the growth of an organized, blood-impermeable neo arterial wall at the entry of the aneurysm sac”. The “neo-wall covering the aneurysmal neck (histopathology)” value [1, 4] was “compact and rich in extracellular matrix (dark grey) and void of inflammation (no black nuclei) or thrombosis”, the “organization of thrombus in the aneurysmal sac (histopathology)” value [1, 4] was “organized” and the “organization of thrombus in the aneurysmal sac (histopathology)” value [1, 5] was “very well organized”. The “reaction of arterial wall in contact with stent struts (histopathology)” value [1, 5] was “absence of inflammation/thrombosis of the arterial wall that is already in contact with the stent struts”, the “survival and thrombus after implantation” value [2] was “still alive with no thrombus” and the CD31/Actin score ([3]; Example 2, FIG. 25, repeated experiments (SP547, SP548 only one measure)) was “significantly higher than those obtained by the bare metal disks or by disks coated with PDA alone”. For the same substance, the “CD31 expression (physiologic endothelial phenotype), Integrated Density” value ([3]; HAEC 48 h on coated nitinol disks, compared to other modified disks and bare controls, FIGS. 2, 4, 5) was “evident positive effect in terms of CD31 expression” and the “ratio between CD31 and F-actin expression” value ([3]; compared to bare metal and disks coated with PDA only, FIG. 6) was “higher CD31/actin ratio”.
